The text below walks through data of US20250099448A1, “HETEROCYCLIC COMPOUNDS” (Hoffmann-La Roche Inc., priority 2022, published 2025).

The IC50 is the concentration that gives 50% inhibition.

This experiment addresses T1, MAGL protein (Homo sapiens, UniProt Q99685).
T1 sequence (Q99685 1-303): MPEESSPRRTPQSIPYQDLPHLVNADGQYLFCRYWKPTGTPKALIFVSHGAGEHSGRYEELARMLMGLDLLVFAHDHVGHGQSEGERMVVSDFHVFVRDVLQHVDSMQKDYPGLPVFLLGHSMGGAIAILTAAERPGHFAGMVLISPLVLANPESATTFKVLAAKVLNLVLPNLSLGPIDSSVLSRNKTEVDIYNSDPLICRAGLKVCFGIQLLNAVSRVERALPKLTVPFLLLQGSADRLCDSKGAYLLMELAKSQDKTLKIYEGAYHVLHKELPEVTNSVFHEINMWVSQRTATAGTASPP
Kind of experiment: 2-AG assay: MAGL inhibitory activity by hydrolysis of 2-arachidonoylglycerol to arachidonic acid, followed by mass spectrometry. The class given is biochemical. The note with it: 8 μM 2-arachidonoylglycerol, 15 min preincubation, 30 min reaction at RT, RapidFire MS readout. Summed up:
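MAGL was preincubated 15 min at RT with compound (12.5 to […], 3-fold steps) in 50 mM TRIS, 1 mM EDTA, 0.01% Tween-20, 2.5% DMSO. The reaction ran 30 min at RT with 8 μM 2-AG. Arachidonic acid was quantified by RapidFire SPE-MS/MS against a d8-arachidonic acid internal standard.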

Molecules are shown by their SMILES.

The compound `O=C(N1CC2(CC(Cc3cnc(C(F)(F)F)cn3)C2)C1)N1CC2(CC(c3nc(C4(F)CC4)n[nH]3)C2)C1` [compound 424] had an IC50 of 0.46 nM.

Take `Cn1cc(OC2CC3(C2)CN(C(=O)N2CC4(CC(c5nc(C6CC6)n[nH]5)C4)C2)C3)c(C(F)(F)F)n1` [compound 425]: 2.22 nM corresponded to half-maximal inhibition (IC50).

For `O=C(N1CC2(CC(c3nc(C4CC4)n[nH]3)C2)C1)N1CC2(CN(Cc3ccn(CC(F)(F)F)c(=O)c3)C2)C1` [compound 426], half-maximal inhibition (IC50) required 274 nM.

As to `O=C(N1CC2(CC(c3nc(C4(F)CC4)n[nH]3)C2)C1)N1CC2(CN(Cc3ccc(S(=O)(=O)C(F)(F)F)cc3)C2)C1` [compound 427], the IC50 was 1.33 nM.

The compound `Cc1cc(C(F)(F)F)n(CC2CC3(C2)CN(C(=O)N2CC4(CC(c5nc(C6CC6)n[nH]5)C4)C2)C3)n1` [compound 428] returned an IC50 of 0.31 nM.

Compound `O=C(N1CC2(CC(c3nc(C4CC4)n[nH]3)C2)C1)N1CC2(CN(Cc3nc(C(F)(F)F)cs3)C2)C1` [compound 430] yielded an IC50 of 5.22 nM.

`O=C(N1CC(c2cnc(OCC3(C(F)(F)F)CC3)cn2)C1)N1CC2(CC(c3nc(C4(F)CC4)n[nH]3)C2)C1` [compound 431] returned a concentration for half-maximal inhibition (IC50) of 0.39 nM.

In turn, `O=C(N1CC2(CCN(Cc3cc(C(F)(F)F)sn3)CC2)C1)N1CC2(CC(c3nc(C4CC4)n[nH]3)C2)C1` [compound 432] had an IC50 of 3.45 nM.

The compound `N#Cc1cc(C(F)(F)F)ncc1CC1CC2(C1)CN(C(=O)N1CC3(CC(c4nnc(C5(O)CC5)[nH]4)C3)C1)C2` [compound 433] gave an IC50 of 0.9 nM.

For the compound `O=C(N1CC2(CC(Oc3ccc(F)cn3)C2)C1)N1CC2(CC(c3nc(C4CC4)n[nH]3)C2)C1` [compound 434], it took 5.52 nM to reach half-maximal inhibition (IC50).

As for `O=C(N1CC2(CCC(S(=O)(=O)c3cccc(C(F)(F)F)c3)CC2)C1)N1CC2(CC(c3nc(C4CC4)n[nH]3)C2)C1` [compound 435], half-maximal inhibition (IC50) was put at 3.95 nM.

Regarding `O=C(N1CC2(CCC(Cc3nnc(C(F)(F)F)[nH]3)CC2)C1)N1CC2(CC(c3nc(C4CC4)n[nH]3)C2)C1` [compound 436], the IC50 was found to be 32.3 nM.

As for `O=C(N1CC(C23CC(Cc4ccc(C(F)(F)F)cc4F)(C2)C3)C1)N1CC2(CC(c3nc(C4(O)CC4)n[nH]3)C2)C1` [compound 438], the IC50 was found to be 3.46 nM.

The compound `CC(C)(C)Cc1nnc(C23CC(C4CCN(C(=O)N5CC6(CC(c7nc(C8CC8)n[nH]7)C6)C5)CC4)(C2)C3)o1` [compound 439] had an IC50 of 4.22 nM.

Compound `Cc1nn(CC(F)(F)F)cc1CN1CC2(C1)CN(C(=O)N1CC3(CC(c4nc(C5CC5)n[nH]4)C3)C1)C2` [compound 440] displayed an IC50 of 109 nM.

Compound `O=C(N1CC2(CC(Cn3cnc(C(F)(F)F)n3)C2)C1)N1CC2(CC(c3nc(C4CC(F)(F)C4)n[nH]3)C2)C1` [compound 441] yielded a half-maximal inhibitory concentration (IC50) of 414 nM.

With `O=C(N1CC(c2cnc(CNC3(C(F)(F)F)CC3)cn2)C1)N1CC2(CC(c3nc(C4CC4)n[nH]3)C2)C1` [compound 443], the half-maximal inhibitory concentration (IC50) is 2.47 nM.

Take `O=C(N1CC2(CC(Cn3ncnc3C(F)(F)F)C2)C1)N1CC2(CC(c3nc(C4CC4)n[nH]3)C2)C1` [compound 444]: the IC50 worked out at 3.25 nM.

As for `Cc1cc(C(F)(F)F)nn1CC1CC2(C1)CN(C(=O)N1CC3(CC(c4nc(C5CC5)n[nH]4)C3)C1)C2` [compound 445], the IC50 is 0.24 nM.

Turning to `O=C(N1CC2(CC(c3nc(C4CC4)n[nH]3)C2)C1)N1CC2(CC(C(F)(F)c3ccc(C(F)(F)F)nn3)C2)C1` [compound 446], the IC50 was 1.71 nM.

In turn, `O=C(N1CC(C23CC(c4nnc(C5(C(F)(F)F)CC5)s4)(C2)C3)C1)N1CC2(CC(c3nc(C4(O)CC4)n[nH]3)C2)C1` [compound 447] showed an IC50 of 101 nM.

Compound `O=C(N1CC2(CC(c3nc(C4(O)CC4)n[nH]3)C2)C1)N1CC2(CC(C(F)(F)c3ccc(C(F)(F)F)nn3)C2)C1` [compound 448] came in with an IC50 of 8.2 nM.

In turn, `O=C(N1CC2(CC(Cc3nsc(C(F)(F)F)n3)C2)C1)N1CC2(CC(c3nc(C4CC4)n[nH]3)C2)C1` [compound 450] registered an IC50 of 0.24 nM.

On to `O=C(N1CC2(CC(c3nc(C4(O)CC4)n[nH]3)C2)C1)N1CC2(CN(Cc3ccc(S(=O)(=O)C(F)(F)F)cc3F)C2)C1` [compound 451], for which the IC50 stood at 1.52 nM.

Compound `O=C(N1CC2(CC(Cc3ccc(C(F)(F)F)nn3)C2)C1)N1CC2(CC(c3nc(C4CC(F)(F)C4)n[nH]3)C2)C1` [compound 452] had a concentration for half-maximal inhibition (IC50) of 413 nM.

In turn, `O=C(N1CC2(CC(Cn3ccnc3C(F)(F)F)C2)C1)N1CC2(CC(c3nc(C4CC4)n[nH]3)C2)C1` [compound 453] registered an IC50 of 1.73 nM.

For the compound `CS(=O)(=O)c1cc(Cl)ccc1-c1ccc(C2CN(C(=O)N3CC4(CC(c5ncn[nH]5)C4)C3)C2)cc1` [compound 454], the half-inhibitory concentration (IC50) was 129 nM.

In turn, `O=C(N1CC2(CC(Cc3cc(F)cc(C(F)(F)F)c3)C2)C1)N1CC2(CC(c3nc(C4CC(F)(F)C4)n[nH]3)C2)C1` [compound 455] came in with an IC50 of 7.1 nM.

As for `O=C(N1CC2(CC(Cn3nccc3C(F)(F)F)C2)C1)N1CC2(CC(c3nc(C4(F)CC4)n[nH]3)C2)C1` [compound 457], the 50% inhibitory concentration (IC50) turned out to be 0.31 nM.

As for `Cc1sc(CN2CC3(C2)CN(C(=O)N2CC4(CC(c5nc(C6CC6)n[nH]5)C4)C2)C3)nc1C(F)(F)F` [compound 458], half-maximal inhibition (IC50) was put at 22.8 nM.

`O=C(N1CC(C23CC(c4cccc(OC(F)(F)F)c4)(C2)C3)C1)N1CC2(CC(c3nc(C4CC4)n[nH]3)C2)C1` [compound 459] yielded an IC50 of 0.02 nM.

In turn, `O=C(N1CC2(CC(Cc3ccc(C(F)(F)F)nn3)C2)C1)N1CC2(CC(c3nc(C4(F)CC4)n[nH]3)C2)C1` [compound 460] showed an IC50 of 2.64 nM.

As for `Cn1ncc(C(F)(F)F)c1CN1CCC2(CC1)CN(C(=O)N1CC3(CC(c4nc(C5CC5)n[nH]4)C3)C1)C2` [compound 461], the midpoint of inhibition, the IC50, lay at 1 nM.

In the case of `CP(C)(=O)c1ccc(CC2CC3(C2)CN(C(=O)N2CC4(CC(c5nc(C6CC6)n[nH]5)C4)C2)C3)c(F)c1` [compound 462], the IC50 worked out at 3.09 nM.

`N#Cc1cc(F)ccc1C12CC(C3CN(C(=O)N4CC5(CC(c6nc(C7CC7)n[nH]6)C5)C4)C3)(C1)C2` [compound 463] showed a concentration for half-maximal inhibition (IC50) of 0.56 nM.

`N#Cc1cc(CC2CC3(C2)CN(C(=O)N2CC4(CC(c5nc(C6(F)CC6)n[nH]5)C4)C2)C3)cc(C(F)(F)F)c1` [compound 464] returned an IC50 of 0.07 nM.

Compound `O=C(N1CC2(CC(Cc3cnc(C(F)(F)F)cn3)C2)C1)N1CC2(CC(c3nc(C4CC(F)(F)C4)n[nH]3)C2)C1` [compound 465] displayed an IC50 of 114 nM.

On to `CC(C)(C)Cc1nnc(C23CC(C4CN(C(=O)N5CC6(CC(c7nc(C8(O)CC8)n[nH]7)C6)C5)C4)(C2)C3)s1` [compound 466], for which half-maximal inhibition (IC50) was put at 22.9 nM.

As for `O=C(N1CC2(CC(Cc3ccc(C(F)(F)F)cc3F)C2)C1)N1CC2(CC(c3nc(C4CC(F)(F)C4)n[nH]3)C2)C1` [compound 467], inhibition was half-maximal at 0.33 nM (IC50).

The compound `O=C(N1CC2(CC(Cc3ccc(F)cc3C(F)(F)F)C2)C1)N1CC2(CC(c3nc(C4CC(F)(F)C4)n[nH]3)C2)C1` [compound 468] gave an IC50 of 2.5 nM.

Turning to `O=C(N1CC(c2cnc(OCC3(C(F)(F)F)CC3)cn2)C1)N1CC2(CC(c3nc(C4CC4)n[nH]3)C2)C1` [compound 469], the IC50 amounted to 1.12 nM.

As to `O=C(N1CC(OCc2ccc(S(=O)(=O)C(F)(F)F)cc2F)C1)N1CC2(CC(c3nc(C4(F)CC4)n[nH]3)C2)C1` [compound 470], the IC50 was found to be 5.08 nM.
